Assay: tests of the topical composition carried out on persons
Format: in vivo
Conditions: compared as hydrogel-soluble NSAID component at about 2-10% of the composition

COC(=O)c1ccccc1O [methyl salicylate]
efficacy of the non-steroidal anti-inflammatory agent within the inventive composition: most efficacious

Reference: patent US20080193576A1, “Antiphlogistic and analgesic composition for topical use in a region of an animal locomotive system” (priority 2007, published 2008)
